Assay results reported in US7943628B2, “Pyrimidine derivatives” (Pfizer Limited, priority 2005, dated 2011).
Like-named read-outs stand apart in the source and are kept apart here.

Biological target: T1, histamine H4 receptor (Homo sapiens, UniProt Q9H3N8)
T1 construct: expressed in transfected cells; host or cells: CHO cells
Assay: H4 binding, method 2 ([3H]-histamine binding with Ysi WGA beads on CHO cell membranes)
Settings: for Ki: H4 binding, method 2, Ki calculated from IC50 (Cheng-Prussoff)
Experimental: Cell pellets from CHO cells expressing the histamine H4 receptor were homogenised in ice-cold 50 mM Tris-HCl/0.5 mM CaCl2 buffer containing a protease inhibitor cocktail (Roche®, United Kingdom) using a ground glass homogeniser. Homogenates were centrifuged at 48000 g for 30 min at 4° C. The membrane pellet was resuspended in fresh buffer and the centrifugation step was repeated as described above. The membrane pellet was resuspended in 50 mM Tris-HCl in the same volume as the original cell pellet. Aliquots of membrane preparations were stored at −80° C. and were used for [^3H]-Histamine binding experiments.
Cell membranes (15 μg/well) were pre-incubated for 120 min shaking at 4° C. with Ysi WGA beads (250 μg/well) in 50 mM Tris-HCl (pH 7.4) followed by centrifugation at 1500 rpm for 5 minutes and resuspension in 50 mM Tris-HCl (pH 7.4). The membrane/bead mixture (15 μg membrane/250 μg beads well) was incubated for 90 minutes shaking at room temperature with 6.5 nM [2,5-^3H] Histamine dihydrochloride (30-60 Ci/mmol) in 50 mM Tris-HCl (pH 7.4), with or without competing H4 ligands. Non-specific binding was defined with 10 μM JNJ7777120. Bound radiolabel was determined using scintillation counting techniques after 90 minutes.

Compound | Ki (read-out: Method 2 (Ki (nM))) [nM] | also measured
COCCNc1cc(N[C@H]2CCNC2)ncn1 [Example 344, N-(2-Methoxyethyl)-N′-[(3S)-pyrrolidin-3-yl]pyrimidine-4,6-diamine] |  | Method 2, % at 40 μM: 40% at 40 μM
CC(C)CNc1cc(N2C[C@H]3CCCN[C@H]3C2)ncn1 (relative stereo) [Example 125, N-Isobutyl-6-[(4aR*,7aR*)-octahydro-6H-pyrrolo[3,4-b]pyridin-6-yl]pyrimidin-4-amine] | 223 | 
CN1C[C@@H]2CN(c3cc(NCCC(C)(C)C)nc(N)n3)C[C@@H]2C1 [Example 40, N^4-(3,3-Dimethylbutyl)-6-[(3aR*,6aS*)-5-methylhexahydro-pyrrolo[3,4-c]pyrrol-2(1H)-yl]pyrimidine-2,4-diamine] | 192 | 
CNC1CN(c2cc(N3CCC(C)CC3)ncn2)C1 [Example 53, N-Methyl-1-[6-(4-methylpiperidin-1-yl)pyrimidin-4-yl]azetidin-3-amine] | 1940 | 
CN1C[C@@H]2CN(c3cc(NCC(C)(C)C)nc(N)n3)C[C@@H]2C1 [Example 39, N^4-(2,2-Dimethylpropyl)-6-[(3aR*,6aS*)-5-methylhexahydro-pyrrolo[3,4-c]pyrrol-2(1H)-yl]pyrimidine-2,4-diamine] |  | Ki (Method 2 (Ki (nM))): 88.9 nM
Cc1c(NCC(C)C)ncnc1N1CCN(C)CC1 [Example 116, N-Isobutyl-5-methyl-6-(4-methylpiperazin-1-yl)pyrimidin-4-amine] | 426 | 
CC(C)(C)CCNc1cc(N2C[C@H]3CCCN[C@H]3C2)nc(N)n1 (racemic) [Example 23, N^4-(3,3-Dimethylbutyl)-6-[(4aR*,7aR*)-octahydro-6H-pyrrolo[3,4-b]pyridin-6-yl]pyrimidine-2,4-diamine] | 824 | 
CNc1cc(N2C[C@H]3CCCN[C@H]3C2)nc(N)n1 (racemic) [Example 25, N^4-Methyl-6-[(4aR*,7aR*)-octahydro-6H-pyrrolo[3,4-b]pyridin-6-yl]pyrimidine-2,4-diamine] | 154 | 
c1nc(NCC2CC2)cc(N2C[C@H]3CCCN[C@H]3C2)n1 (relative stereo) [Example 123, N-(Cyclopropylmethyl)-6-[(4aR*,7aR*)-octahydro-6H-pyrrolo[3,4-b]pyridin-6-yl]pyrimidin-4-amine] | 103 | 
CN[C@H]1CCN(c2cc(NCCC(C)(C)C)ncn2)C1 [Example 17, N-(3,3-Dimethylbutyl)-6-[(3S)-3-(methylamino)pyrrolidin-1-yl]pyrimidin-4-amine] | 483 | 
CNC1CN(c2cc(NCc3ccccc3Cl)ncn2)C1 [Example 52, N-(2-Chlorobenzyl)-6-[3-(methylamino)azetidin-1-yl]pyrimidin-4-amine] | 99.7 | 
CC(C)Nc1cc(N2C[C@H]3CCCN[C@H]3C2)nc(N)n1 (racemic) [Example 24, N^4Isopropyl-6-[(4aR*,7aR*)-octahydro6H-pyrrolor[3,4-b]pyridin-6-yl]pyrimidine-2,4-diamine] |  | Ki (Method 2 (Ki (nM))): 30.8 nM
CCNc1cc(N2CC[C@@H](NC)C2)ncn1 [Example 13, N-Ethyl-6-[(3R)-3-(methyl-amino)pyrrolidin-1-yl]pyrimidin-4-amine] | 51.8 | 
CNC1CN(c2cc(NCc3ccc(F)cc3)ncn2)C1 [Example 47, N-(4-Fluorobenzyl)-6-[3-(methylamino)azetidin-1-yl]pyrimidin-4-amine] | 256 | 
CNC1CN(c2cc(NCCO)ncn2)C1 [Example 50, 2-({6-[3-(Methylamino)azetidin-1-yl]pyrimidin-4-yl}amino)ethanol] | 279 | 
CC(C)(C)CNc1cc(N2CCN3CCCC3C2)nc(N)n1 (stereo not shown) [Example 141, N^4-(2,2-Dimethylpropyl)-6-(hexahydropyrrolo[1,2-a]pyrazin-2(1H)-yl)pyrimidine-2,4-diamine] |  | Ki (Method 2 (Ki (nM))): 4.97 nM
CCNc1cc(N2CC[C@@H](NC)C2)nc(N)n1 [Example 12, N^4-Ethyl-6-[(3R)-3-(methylamino)pyrrolidin-1-yl]pyrimidine-2,4-diamine] | 52.4 | 
CCCNc1cc(N2C[C@H]3CN(C)C[C@H]3C2)nc(N)n1 [Example 34, 6-[(3aR*,6aS*)-5-Methylhexahydropyrrolo[3,4-c]pyrrol-2(1H)-yl]-N^4-propylpyrimidine-2,4-diamine] | 452 | 
CCNc1cc(N2CCN[C@@H](C)C2)nc(N)n1 [Example 98, N^4-Ethyl-6-[(3S)-3-methylpiperazin-1-yl]pyrimidine-2,4-diamine] |  | Ki (Method 2 (Ki (nM))): 56.2 nM
CN1C[C@@H]2CN(c3cc(NC4CCC4)nc(N)n3)C[C@@H]2C1 [Example 43, N^4-Cyclobutyl-6-[(3aR*,6aS*)-5-methylhexahydro-pyrrolo[3,4-c]pyrrol-2(1H)-yl]pyrimidine-2,4-diamine] | 236 | 
CC(C)(C)CNc1cc(N2C[C@H]3CCCN[C@H]3C2)ncn1 (racemic) [Example 127, N-(2,2-Dimethylpropyl)-6-[(4aR*,7aR*)-octahydro-6H-pyrrolo[3,4-bjpyridin-6-yl]pyrimidin-4-amine] |  | Ki (Method 2 (Ki (nM))): 65.8 nM
CN1CCC(Nc2cc(NCCC(C)(C)C)ncn2)CC1 [Example 343, N-(3,3-Dimethylbutyl)-N′-(1-methylpiperidin-4-yl)pyrimidine-4,6-diamine] |  | Method 2, % at 40 μM: 53% at 40 μM
CC(C)(C)CCNc1cc(N2CCC(N)CC2)ncn1 [Example 340, 6-(4-Aminopiperidin-1-yl)-N-(3,3-dimethylbutyl)pyrimidin-4-amine] |  | Method 2, % at 40 μM: 50% at 40 μM
CCNc1cc(N2CCN[C@H](C)C2)nc(N)n1 [Example 97, N^4-Ethyl-6-[(3R)-3-methylpiperazin-1-yl]pyrimidine-2,4-diamine] |  | Ki (Method 2 (Ki (nM))): 43.7 nM
CCNc1cc(N2C[C@H]3CN(C)C[C@H]3C2)ncn1 [Example 117, N-Ethyl-6-[(3aR*,6aS*)-5-methylhexahydropyrrolo[3,4-c]pyrrol-2(1H)-yl]pyrimidin-4-amine] | 1620 | 

More lines, main results first:

Ki (read-out: Method 2 (Ki (nM))) [nM] | Compound | also measured
9070 | CNc1nc(NCCC(C)(C)C)cc(N2CCN(C)CC2)n1 [Example 339, N^4-(3,3-Dimethylbutyl)-N^2-methyl-6-(4-methylpiperazin-1-yl)pyrimidine-2,4-diamine] | 
829 | COCCNc1cc(N2CCN(C)CC2)ncn1 [Example 110, N-(2-Methoxyethyl)-6-(4-methylpiperazin-1-yl)pyrimidin-4-amine] | 
62.3 | CNC1CN(c2cc(NCc3cccc(C)c3)nc(N)n2)C1 [Example 83, 6-[3-(Methylamino)azetidin-1-yl]-N^4-(3-methylbenzyl)pyrimidine-2,4-diamine] | 
3.66 | CNC1CN(c2cc(NCc3ccccc3F)nc(N)n2)C1 [Example 78, N^4-(2-Fluorobenzyl)-6-[3-(methylamino)azetidin-1-yl]pyrimidine-2,4-diamine] | 
3120 | CC(C)(C)CCNc1cc(N2CC3C(N)C3C2)nc(N)n1 (stereo not drawn) [Example 333, 6-[(1R*,5S*,6s*)-6-Amino-3-azabicyclo[3.1.0]hex-3-yl]-N^4-(3,3-dimethylbutyl)pyrimidine-2,4-diamine] | 
6330 | CNC1CN(c2cc(N3CCCC3)ncn2)C1 [Example 336, N-Methyl-1-(6-pyrrolidin-1-ylpyrimidin-4-yl)azetidin-3-amine] | 
20.3 | CNC1CN(c2cc(NCC(C)(C)C)ncn2)C1 [Example 57, N-(2,2-Dimethylpropyl)-6-[3-(methylamino)azetidin-1-yl]pyrimidin-4-amine] | 
125 | CNC1CN(c2cc(NCc3ccc(OC(F)(F)F)cc3)nc(N)n2)C1 [Example 76, 6-[3-(Methylamino)azetidin-1-yl]-N^4-[4-(trifluoromethoxy)benzyl]pyrimidine-2,4-diamine] | 
9.38 | CNc1cc(N2CC(NC)C2)nc(N)n1 [Example 69, N^4-Methyl-6-[3-(methylamino)azetidin-1-yl]pyrimidine-2,4-diamine] | 
7220 | c1ccc(CNc2cc(N[C@@H]3CCNC3)ncn2)cc1 [Example 337, N-Benzyl-N′-[(3R)-pyrrolidin-3-yl]pyrimidine-4,6-diamine] | 
142 | CNC1CN(c2cc(NCc3cccc(Cl)c3)nc(N)n2)C1 [Example 86, N^4-(3-Chlorobenzyl)-6-[3-(methylamino)azetidin-1-yl]pyrimidine-2,4-diamine] | 
611 | CC(C)(C)CNc1cc(N2C[C@@H]3[C@@H](N)[C@@H]3C2)nc(N)n1 [Example 126, 6-[(1R*,5S*,6s*)-6-Amino-3-azabicyclo[3.1.0]hex-3-yl]-N^4-(2,2-dimethylpropyl)pyrimidine-2,4-diamine] | 
156 | CNC1CN(c2cc(NCc3ccc(C(F)(F)F)cc3)nc(N)n2)C1 [Example 85, 6-[3-(Methylamino)azetidin-1-yl]-N^4-[4-(trifluoromethyl)benzyl]pyrimidine-2,4-diamine] | 
9.11 | C[C@@H]1CN(c2cc(NCC(C)(C)C)nc(N)n2)CCN1 [Example 95, N^4-(2,2-Dimethylpropyl)-6-[(3R)-3-methylpiperazin-1-yl]pyrimidine-2,4-diamine] | 
21.7 | CNC1CN(c2cc(NCc3ccccc3C(F)(F)F)nc(N)n2)C1 [Example 84, 6-[3-(Methylamino)azetidin-1-yl]-N^4-[2-(trifluoromethyl)benzyl]pyrimidine-2,4-diamine] | 
